Reference: PubChem BioAssay (NCI)
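Values below derive from 48-hour exposures of cells grown in 96-well plates, with endpoints linearly interpolated between the two concentrations bracketing the appropriate inhibition level. Definition used: TGI = concentration required for complete inhibition of growth.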

Columns and labels:
Test in all cases: inhibition of tumour cell growth, NCI panel, 48 h
T-47D breast = tested on: T-47D breast
ACHN renal = tested on: ACHN renal
SK-MEL-28 melanoma = tested on: SK-MEL-28 melanoma
MDA-MB-435 = tested on: MDA-MB-435
CCRF-CEM leukemia = tested on: CCRF-CEM leukemia
SR leukemia = tested on: SR leukemia
NCI-H226 lung = tested on: NCI-H226 lung
786-0 renal = tested on: 786-0 renal
NCI-H23 lung = tested on: NCI-H23 lung
UACC-257 melanoma = tested on: UACC-257 melanoma
MDA-N = tested on: MDA-N
TK-10 renal = tested on: TK-10 renal
HOP-92 NSCLC = tested on: HOP-92 NSCLC
NCI-H460 lung = tested on: NCI-H460 lung
PC-3 prostate = tested on: PC-3 prostate
SF-268 CNS = tested on: SF-268 CNS
LOX IMVI melanoma = tested on: LOX IMVI melanoma
SNB-75 CNS = tested on: SNB-75 CNS
HS 578T breast = tested on: HS 578T breast

Structure (SMILES)	TGI (T-47D breast) [µM]	TGI (ACHN renal) [µM]	TGI (SK-MEL-28 melanoma) [µM]	TGI (MDA-MB-435) [µM]	TGI (CCRF-CEM leukemia) [µM]	TGI (SR leukemia) [µM]	TGI (NCI-H226 lung) [µM]	TGI (786-0 renal) [µM]	TGI (NCI-H23 lung) [µM]	TGI (UACC-257 melanoma) [µM]	TGI (MDA-N) [µM]	TGI (TK-10 renal) [µM]	TGI (HOP-92 NSCLC) [µM]	TGI (NCI-H460 lung) [µM]	TGI (PC-3 prostate) [µM]	TGI (SF-268 CNS) [µM]	TGI (LOX IMVI melanoma) [µM]	TGI (SNB-75 CNS) [µM]	TGI (HS 578T breast) [µM]
CC(=O)O[C@H]1CCC2[C@@H]3CCC4Nc5oncc5C[C@]4(C)C3CC[C@@]21C (some centres undefined)	> 10	> 10	> 10	> 10	> 10	> 10	> 10	> 10	> 10	> 10	> 10	> 10	> 10	> 10	> 10	> 10	> 10		
Cc1c(O)c(OC2OC(CO)C(O)C(O)C2O)cc2c1CC[C@@H]1C2(C)C(=O)C[C@]2(C)[C@@H]([C@@](C)(O)C(=O)CCC(C)(C)O)[C@H](O)C[C@@]12C (some centres undefined)	> 100	> 100	> 100	> 100	> 100	> 100	> 100	> 100	> 100	> 100	> 100	> 100	> 100	> 100	> 100	> 100		> 100	
O=C(O)c1nc2ccc(C(F)(F)F)cc2nc1NCc1ccc(F)cc1	> 100	> 100	> 100	> 100	> 100	42	> 100	28	79.8	76.2	76.9		45.3	63	82.6		36.5	94.9	
C/C(=N/NC(=S)Nc1ccc(Cl)cc1)c1cccc(/C(C)=N\NC(=S)Nc2ccc(Cl)cc2)n1	> 100	40.3	45.6	55.8	> 100	7.25	47.5	21	> 100	46.8	> 100	> 100	> 100	56.4	> 100	58.1	26.8	> 100	
Fc1ccc(C(=C2CCN(CCc3ccc4[nH]c(=S)[nH]c4c3)CC2)c2ccc(F)cc2)cc1	4.1	24.1	2.63		> 20.6		52.3	3.61	13.1	2.4	4.81	4.74	8.51	8.94	8.76	25.9	39.9	7.31	40.8
CCCCSC1=N/C(=C\c2ccco2)C(Cl)=N1	> 100	> 100	> 100	> 100	> 100		> 100	> 100	> 100	> 100	> 100	> 100		> 100	> 100	> 100		> 100	> 100
O=C(O/C=C\OC1CCCC1(c1ccccc1)c1ccccc1)c1ccccc1 (centres undefined)	7.42	13.9	18.3		5.89		43.2	14	6.07	33	9.32	17.9	4.97	88.8	13.6	14.1	3.22	20.9	23.6
Cn1c(=O)oc2cc(C(O)CN3CCN(Cc4ccccn4)CC3)c(Cl)cc21 (centres undefined)	> 100	> 100	> 100	> 100	> 100	> 100	> 100	> 100	> 100	> 100	> 100	> 100	> 100	> 100	> 100	> 100	> 100	> 100	
COC(=O)[C@H](Cc1c[nH]c2ccccc12)NC(=O)c1ccc(CNC(=O)/C(C)=C/c2ccccc2)cc1	27.7	> 100	36.7	> 100	> 100	> 100	> 100	> 100	> 100	33.5	40.3	> 100	34.3	> 100	> 100	> 100	> 100	32.2	
COc1ccc(C2OC(N)=C(C#N)C3=C2CCCC3C)cc1OC (centres undefined)	> 100	> 100	> 100	> 100	> 100		> 100	> 100	> 100	> 100	> 100	> 100		> 100	> 100	> 100	> 100	> 100	> 100
Cc1cc(C2CC(O)C(CO)O2)c(F)cc1F (centres undefined)	> 100	> 100	> 100	> 100	> 100	> 100	> 100	> 100	> 100	> 100	> 100	> 100	> 100	> 100	> 100	> 100	> 100	> 100	
